Experimental findings from ChEMBL document CHEMBL1130602 (Bioorg Med Chem Lett, 1998) are described below.

pIC50, pKi: −log10 of the molar value.

The target in test [1] is D(2) dopamine receptor (Homo sapiens) (UniProt P14416). In words: Selectivity ratio of Ki of D2 receptor to that of D3 receptor.
For a further test, the target named is D(1B) dopamine receptor (Homo sapiens, UniProt P21918). Nature of the test: Compound was evaluated for binding affinity against human Dopamine receptor D5 transfected in CHO cell membranes.
D(1B) dopamine receptor, sequence (P21918 whole entry): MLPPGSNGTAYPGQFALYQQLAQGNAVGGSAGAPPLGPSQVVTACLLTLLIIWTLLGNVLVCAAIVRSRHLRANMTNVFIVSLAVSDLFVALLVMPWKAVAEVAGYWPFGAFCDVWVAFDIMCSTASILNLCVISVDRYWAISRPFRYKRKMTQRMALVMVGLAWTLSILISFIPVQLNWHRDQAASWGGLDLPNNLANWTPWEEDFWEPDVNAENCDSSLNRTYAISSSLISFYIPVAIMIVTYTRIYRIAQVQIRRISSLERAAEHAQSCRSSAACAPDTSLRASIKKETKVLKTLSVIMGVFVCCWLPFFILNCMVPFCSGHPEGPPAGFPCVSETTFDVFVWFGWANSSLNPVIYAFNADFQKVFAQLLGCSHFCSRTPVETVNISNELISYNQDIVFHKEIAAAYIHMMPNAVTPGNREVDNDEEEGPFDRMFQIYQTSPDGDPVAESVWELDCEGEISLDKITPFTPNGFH
For a further test, the target named is D(3) dopamine receptor (Homo sapiens, UniProt P35462). Nature of the test: Compound was evaluated for binding affinity against human Dopamine receptor D3 transfected in CHO cell membranes to stimulate [3H]thymidine uptake.
D(3) dopamine receptor, sequence (P35462 whole entry): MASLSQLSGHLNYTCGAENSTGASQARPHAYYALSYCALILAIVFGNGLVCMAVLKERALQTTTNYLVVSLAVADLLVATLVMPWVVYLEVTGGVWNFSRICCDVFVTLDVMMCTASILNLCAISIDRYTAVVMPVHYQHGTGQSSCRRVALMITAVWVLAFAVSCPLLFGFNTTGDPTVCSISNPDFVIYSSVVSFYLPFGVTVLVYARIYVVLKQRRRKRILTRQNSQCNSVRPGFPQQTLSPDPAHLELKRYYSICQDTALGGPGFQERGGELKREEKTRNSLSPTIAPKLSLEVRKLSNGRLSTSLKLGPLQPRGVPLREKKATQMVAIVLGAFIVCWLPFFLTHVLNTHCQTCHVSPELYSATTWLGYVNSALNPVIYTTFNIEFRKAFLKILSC
For another test, the target named is D(1A) dopamine receptor (Homo sapiens, UniProt P21728). In words: Compound was evaluated for binding affinity against Dopamine receptor D1 transfected in CHO cell membranes.
D(1A) dopamine receptor, sequence (P21728 whole entry): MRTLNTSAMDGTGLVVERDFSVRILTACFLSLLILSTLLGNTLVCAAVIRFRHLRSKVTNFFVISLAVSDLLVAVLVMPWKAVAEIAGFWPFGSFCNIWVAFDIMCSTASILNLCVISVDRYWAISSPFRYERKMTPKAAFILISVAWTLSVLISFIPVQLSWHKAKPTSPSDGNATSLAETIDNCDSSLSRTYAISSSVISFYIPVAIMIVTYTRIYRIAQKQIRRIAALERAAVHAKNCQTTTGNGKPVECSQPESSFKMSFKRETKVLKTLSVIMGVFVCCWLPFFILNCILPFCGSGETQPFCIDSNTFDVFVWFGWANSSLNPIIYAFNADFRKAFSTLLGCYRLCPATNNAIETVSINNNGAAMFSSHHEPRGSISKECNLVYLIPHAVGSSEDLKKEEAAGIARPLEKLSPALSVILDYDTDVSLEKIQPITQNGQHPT
For test [2], the target named is T1, Adrenergic receptor alpha-1 (Rattus norvegicus, UniProt P15823+P23944+P43140).
T1 sequence (P15823 whole entry): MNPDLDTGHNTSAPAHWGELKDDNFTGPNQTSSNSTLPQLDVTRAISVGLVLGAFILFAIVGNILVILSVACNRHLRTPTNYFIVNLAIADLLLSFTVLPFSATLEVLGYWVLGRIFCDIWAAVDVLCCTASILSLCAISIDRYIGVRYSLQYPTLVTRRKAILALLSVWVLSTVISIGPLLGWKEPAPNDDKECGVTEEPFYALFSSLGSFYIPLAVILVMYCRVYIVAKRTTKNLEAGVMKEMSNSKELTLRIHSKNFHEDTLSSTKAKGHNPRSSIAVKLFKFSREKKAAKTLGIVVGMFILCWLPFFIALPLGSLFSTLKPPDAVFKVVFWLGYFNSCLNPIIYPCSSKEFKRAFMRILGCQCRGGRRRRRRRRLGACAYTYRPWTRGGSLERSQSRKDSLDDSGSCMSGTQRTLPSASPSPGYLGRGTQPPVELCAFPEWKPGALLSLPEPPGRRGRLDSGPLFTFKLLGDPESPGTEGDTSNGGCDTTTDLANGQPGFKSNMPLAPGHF
T1 sequence (P23944 whole entry): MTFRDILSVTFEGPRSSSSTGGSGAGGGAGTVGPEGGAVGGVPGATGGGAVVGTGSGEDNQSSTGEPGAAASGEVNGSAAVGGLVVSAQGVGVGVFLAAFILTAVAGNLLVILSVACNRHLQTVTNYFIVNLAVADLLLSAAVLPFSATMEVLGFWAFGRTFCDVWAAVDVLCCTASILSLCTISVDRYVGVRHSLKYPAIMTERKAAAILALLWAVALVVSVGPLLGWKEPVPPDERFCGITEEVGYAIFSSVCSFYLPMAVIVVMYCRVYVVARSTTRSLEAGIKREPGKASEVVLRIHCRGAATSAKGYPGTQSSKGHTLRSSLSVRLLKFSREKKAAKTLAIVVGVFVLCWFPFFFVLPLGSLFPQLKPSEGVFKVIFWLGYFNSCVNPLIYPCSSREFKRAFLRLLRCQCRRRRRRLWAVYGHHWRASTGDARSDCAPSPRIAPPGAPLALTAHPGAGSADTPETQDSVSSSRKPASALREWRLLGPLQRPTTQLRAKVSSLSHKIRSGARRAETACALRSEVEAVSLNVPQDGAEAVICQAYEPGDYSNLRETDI
T1 sequence (P43140 whole entry): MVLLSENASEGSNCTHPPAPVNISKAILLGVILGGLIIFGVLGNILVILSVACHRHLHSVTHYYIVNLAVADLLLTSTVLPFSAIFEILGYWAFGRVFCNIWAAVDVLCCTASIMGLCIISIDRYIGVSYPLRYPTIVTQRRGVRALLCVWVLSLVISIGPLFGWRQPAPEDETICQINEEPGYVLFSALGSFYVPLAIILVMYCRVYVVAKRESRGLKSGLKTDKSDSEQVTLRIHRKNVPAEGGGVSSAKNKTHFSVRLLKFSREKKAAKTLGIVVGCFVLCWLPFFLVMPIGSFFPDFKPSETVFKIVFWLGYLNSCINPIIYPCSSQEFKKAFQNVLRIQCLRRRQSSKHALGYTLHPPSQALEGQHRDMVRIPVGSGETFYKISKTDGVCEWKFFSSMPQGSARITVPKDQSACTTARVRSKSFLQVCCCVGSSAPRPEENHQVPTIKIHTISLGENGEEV
In words: Compound was evaluated for binding affinity against Alpha-1 adrenergic receptor from rat. Format: protein assay.

Test [3] concerns the target Serotonin 2 (5-HT2) receptor (Rattus norvegicus, UniProt P30994+P08909+P14842). In words: Compound was evaluated for binding affinity against 5-hydroxytryptamine 2 receptor from rat. Format: protein assay.
The next test has as its system CHO. In words: (§1) Compound was tested for stimulation of mitogenesis in CHO.hD3 cells in a dose dependent manner. Format: functional, cell-based. The following applies: Cricetulus griseus.
Test [4] concerns the target T2, D(4) dopamine receptor (Homo sapiens, UniProt P21917).
T2 sequence (P21917 whole entry): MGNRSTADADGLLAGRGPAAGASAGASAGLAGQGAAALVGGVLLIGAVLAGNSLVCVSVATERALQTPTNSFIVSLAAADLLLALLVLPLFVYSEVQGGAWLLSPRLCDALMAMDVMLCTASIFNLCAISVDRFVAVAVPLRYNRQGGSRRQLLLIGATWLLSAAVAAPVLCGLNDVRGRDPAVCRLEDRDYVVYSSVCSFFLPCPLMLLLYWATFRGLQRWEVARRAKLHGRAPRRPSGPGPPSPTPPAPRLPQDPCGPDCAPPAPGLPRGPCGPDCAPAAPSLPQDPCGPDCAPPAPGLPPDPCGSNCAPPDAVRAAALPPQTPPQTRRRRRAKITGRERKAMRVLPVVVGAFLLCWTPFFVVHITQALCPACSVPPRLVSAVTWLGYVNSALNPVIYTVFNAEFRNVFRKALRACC
Nature of the test: Compound was evaluated for binding affinity against human Dopamine receptor D4 transfected in CHO cell membranes.

The subject of the next test is CHO-hD3. The description is as §1. Format: functional, cell-based. The following applies: Cricetulus griseus.
The target in test [5] is T2, D(4) dopamine receptor. In words: Affinity against D4 receptor was evaluated.

D(2) dopamine receptor (Homo sapiens), sequence (P14416 whole entry): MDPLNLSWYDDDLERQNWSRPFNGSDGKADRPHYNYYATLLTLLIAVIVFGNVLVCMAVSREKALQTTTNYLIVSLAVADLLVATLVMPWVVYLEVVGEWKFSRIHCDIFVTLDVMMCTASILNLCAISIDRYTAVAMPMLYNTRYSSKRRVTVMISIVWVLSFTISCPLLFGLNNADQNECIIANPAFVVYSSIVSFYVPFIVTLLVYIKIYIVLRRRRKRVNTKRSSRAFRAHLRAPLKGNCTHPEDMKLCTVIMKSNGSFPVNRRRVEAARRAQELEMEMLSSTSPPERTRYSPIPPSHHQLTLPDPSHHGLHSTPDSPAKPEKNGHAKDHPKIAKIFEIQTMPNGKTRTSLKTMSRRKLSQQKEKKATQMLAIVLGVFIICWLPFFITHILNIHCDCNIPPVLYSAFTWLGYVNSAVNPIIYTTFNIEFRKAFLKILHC

Turning to `CCCCN1CCCC1CNC(=O)c1cc(C#N)c2ccccc2c1OC` (stereo unspecified), the Ratio in test [1] amounted to 10.
As a reminder, the pKi is the negative decadic logarithm of the Ki, by convention in mol/L. Usually Ki stands for a dissociation constant, usually derived from enzyme kinetics or from competition with a known ligand. For orientation: pIC50 means the negative decadic logarithm of the IC50, by convention in mol/L. Read a low pIC50 as a high IC50. For `O=C(NCCCCN1CCN(c2cccc(Cl)c2Cl)CC1)c1ccc2c(c1)-c1ccccc1-2`, the pKi is below 5.00 on D(1B) dopamine receptor, 9.05 at D(3) dopamine receptor, below 5.00 on D(1A) dopamine receptor and below 5.30 at D(4) dopamine receptor [4]. The results for the inhibition constant (Ki) in [2] and in test [3] were 547 nM and 125 nM, respectively. Further, the pIC50 in the test on CHO is 8.17.
As for `O=C(CCCN1CCC(O)(c2ccc(Cl)cc2)CC1)c1ccc(F)cc1` [HALOPERIDOL], the pIC50 in the test with CHO-hD3 is 8.06.
As for `O=C(NCCCCN1CCN(c2cccc(Cl)c2Cl)CC1)c1ccc2c(c1)Cc1ccccc1-2`, the pKi was below 5.00 on D(1B) dopamine receptor, below 5.00 at D(1A) dopamine receptor and below 5.30 on D(4) dopamine receptor [4]. Also, the Ki in test [2] worked out at 642 nM; in test [3], 223 nM. Besides, the pIC50 in the test with CHO-hD3 is 8.30.
`COc1c(C(=O)NCCN2CCN(c3cccc(Cl)c3Cl)CC2)cc(Br)c2ccccc12` gave a pKi at D(4) dopamine receptor [5] of 7.19.
